Reference: ChEMBL document CHEMBL1141104, “Glycodiversification for the optimization of the kanamycin class aminoglycosides” (2005)
In brackets after ≈: the same amount, converted by molar mass. Activity calls are given as the source filed them. The calls are words filed in the database; no cut-off is given here.

Experiments:
Escherichia coli [1] = experiment: Minimum inhibitory concentration against Escherichia coli (ATCC 25922); inactive; assay type: functional, organism-based
Staphylococcus aureus [2] = experiment: Minimum inhibitory concentration against Staphylococcus aureus (ATCC 25923); inactive; assay type: functional, organism-based
Staphylococcus aureus [3] = experiment: Minimum inhibitory concentration against Staphylococcus aureus (ATCC 25923); assay type: functional
Escherichia coli [4] = experiment: Minimum inhibitory concentration against Escherichia coli (ATCC 25922); assay type: functional
[5] = Staphylococcus aureus, ATCC 25923, read-out: MIC
[6] = Escherichia coli, ATCC 25922, read-out: MIC

Compound | MIC (Escherichia coli [1]) | MIC (Staphylococcus aureus [2]) | MIC (Staphylococcus aureus [3]; [5]) | MIC (Escherichia coli [4]; [6]) | MIC (Staphylococcus aureus [3]) | MIC (Escherichia coli [4])
CC1OC(OC2C(N)CC(N)C(OC3OC(CN)C(O)C(O)C3N)C2O)C(O)C(O)C1O (stereo in doubt; 23) | inactive | inactive |  |  |  | 
CC1OC(OC2C(N)CC(N)C(OC3OC(CN)C(O)C(O)C3N)C2O)C(O)C(O)C1O (stereo in doubt) [listing 1 of 2 here] |  |  | 16 µg/mL (≈ 34.2 µM) | 32 µg/mL (≈ 68.3 µM) |  | 
NC[C@@H]1O[C@H](O[C@H]2[C@H](O)[C@H](O[C@H]3O[C@H](CO)[C@H](O)[C@@H](O)[C@H]3O)[C@H](N)C[C@H]2N)[C@@H](N)[C@@H](O)[C@@H]1O |  |  | 32 µg/mL (≈ 66 µM) | 32 µg/mL (≈ 66 µM) |  | 
NC[C@H]1O[C@H](O[C@H]2[C@H](O)[C@@H](O[C@H]3O[C@H](CO)[C@@H](O)[C@H](N)[C@H]3O)[C@H](N)C[C@@H]2N)[C@H](N)[C@@H](O)[C@@H]1O [BEKANAMYCIN] |  |  | 2 µg/mL (≈ 4.14 µM) | 2 µg/mL (≈ 4.14 µM) | 1 µg/mL (≈ 2.07 µM) | 4 µg/mL (≈ 8.27 µM)
CC1CC(O)C(O)C(OC2C(N)CC(N)C(OC3OC(CN)C(O)C(O)C3N)C2O)O1 (centres undefined) | inactive | inactive |  |  |  | 
NCC1OC(OC2C(N)CC(N)C(OC3OCC(O)C(O)C3O)C2O)C(N)C(O)C1O (centres undefined) |  |  | 64 µg/mL (≈ 141 µM) | 32 µg/mL (≈ 70.4 µM) |  | 
CC1OC(OC2C(N)CC(N)C(OC3OC(CN)C(O)C(O)C3N)C2O)C(O)C(O)C1OC[C@@H](N)CN (some centres undefined) |  |  | 8 µg/mL (≈ 14.8 µM) | 8 µg/mL (≈ 14.8 µM) |  | 
CC1OC(OC2C(N)CC(N)C(OC3OC(CN)C(O)C(O)C3N)C2O)C(O)C(O)C1O (stereo in doubt) [listing 2 of 2 here] | inactive | inactive |  |  |  | 

The next lines start with results.

MIC (Escherichia coli [1]) | MIC (Staphylococcus aureus [2]) | MIC (Staphylococcus aureus [3]; [5]) | MIC (Escherichia coli [4]; [6]) | Compound | MIC (Staphylococcus aureus [3]) | MIC (Escherichia coli [4])
 |  | 4 µg/mL (≈ 6.51 µM) | 8 µg/mL (≈ 13 µM) | CC1OC(OC2C(N)CC(N)C(OC3OC(CN)C(O)C(O)C3N)C2O)C(O)C(O)C1OCC(CN)OC[C@H](O)CN (some centres undefined) |  | 
 |  | 4 µg/mL (≈ 7.39 µM) | 4 µg/mL (≈ 7.39 µM) | CC1OC(OC2C(N)CC(N)C(OC3OC(CN)C(O)C(O)C3N)C2O)C(O)C(O)C1OC[C@@H](O)CN (some centres undefined) |  | 
 |  | 8 µg/mL (≈ 14.8 µM) | 8 µg/mL (≈ 14.8 µM) | CC1OC(OC2C(N)CC(N)C(OC3OC(CN)C(O)C(O)C3N)C2O)C(O)C(O)C1OC[C@H](N)CN (some centres undefined) |  | 
 |  | 2 µg/mL (≈ 4.28 µM) | 12 µg/mL (≈ 25.7 µM) | CC1OC(OC2C(N)CC(N)C(OC3OC(CN)C(O)C(O)C3N)C2O)C(O)C(O)C1N (centres undefined) |  | 
 |  | 2 µg/mL (≈ 4.28 µM) | 2 µg/mL (≈ 4.28 µM) | CC1OC(OC2C(N)CC(N)C(OC3OC(CN)C(O)C(O)C3N)C2O)C(O)C(N)C1O (centres undefined) |  | 
 |  | 2 µg/mL (≈ 3.7 µM) | 4 µg/mL (≈ 7.4 µM) | CC1OC(OC2C(N)CC(N)C(OC3OC(CN)C(O)C(O)C3N)C2O)C(O)C(N)C1OCC(O)CN (centres undefined) |  | 
 |  | 4 µg/mL (≈ 7.61 µM) | 4 µg/mL (≈ 7.61 µM) | CC1OC(OC2C(N)CC(N)C(OC3OC(CN)C(O)C(O)C3N)C2O)C(O)C(O)C1OCCCN (centres undefined) |  | 
 |  | 4 µg/mL (≈ 7.39 µM) | 4 µg/mL (≈ 7.39 µM) | CC1OC(OC2C(N)CC(N)C(OC3OC(CN)C(O)C(O)C3N)C2O)C(O)C(O)C1OC[C@H](O)CN (some centres undefined) |  | 
